Measured values reported in patent US20160009763A1, “PEPTIDE MOLECULAR MATERIALS” (National Chiao Tung University, priority 2014, published 2016).
Non-standard residues stand in square brackets, D forms with d. Residues, ends and D or L forms follow the SMILES beside them. ξ: configuration not given here. *: point of attachment. Phenylacetyl(2,3,4,5,6-F5) = O=C(Cc1c(F)c(F)c(F)c(F)c1F)*; Phenylacetyl(4-F) = O=C(Cc1ccc(F)cc1)*; Hydrocinnamoyl = O=C(CCc1ccccc1)*; Ile(3ξ) = CCC(C)[C@H](N)C(=O)O; PhAc = O=C(Cc1ccccc1)*; Bz = O=C(c1ccccc1)*

Key:
Hela cell [1] = test: Wound healing assay, Hela cell; format: cell-based; settings: medium with 1 wt % of hydrogel
Method: Various cells were washed with PBS (phosphate buffer) twice and were suspended in a T-75 tissue culture flask. 0.25% trypsin containing 0.1% EDTA was added and then the cells were re-suspended in 5 mL of complete medium. 30000 cells (in 3 mL of medium) were placed in each vial on a 6-well plate to form a fusion monolayer. […] 2 mL of PBS was used twice to remove the floating cells, and was then replaced with 3 mL of complete medium. The image taken at 0 hour was used as a reference point. […] The images at different hours were taken at an appropriate region. Control: no compound added.

[2] = Phase inversion temperature (Tgel-sol) test of hydrogels; format: physicochemical; settings: heated 2° C./min until hydrogel began to flow
Method: Hydrogels (A) to (R) were obliquely placed in water bath while a beaker including water and a thermometer was also placed in the water bath. The hydrogels were heated (2° C./min) until such hydrogels began to flow (the gel phase was changed to the sol phase). The inversion temperatures when the hydrogels began to flow were recorded, and such temperatures were the phase inversion temperatures of hydrogels.

[3] = Rheological test of hydrogels (angular frequency sweep); format: physicochemical; settings: angular frequency sweep 0.1 to 100 rad/s, strain=0.8%, 25° C.
Method: In the present invention, Rheological test was performed by Anton Paar rheometer. MTT cell viability assay was performed by Sunrise absorbance microplate reader (DV990/BV4 GDV Programmable MPT reader).
Rheological tests of hydrogels were performed by Anton Paar rheometer. 25 mm parallel plate was used in the experimentation. 400 μL of hydrogels (A) to (R) were placed on the parallel plate. Angular frequency sweep test: measurement range (frequency 0.1 to 100 rad/s, strain=0.8%) is 13 points per 10 rounds. Sweep model is “logarithm (log)” and the operation temperature is 25° C.
In FIG. 3, G′ represents storage modulus, and G″ represents loss modulus. The higher G′ and G″ are, the better stability the hydrogel is.

[4] = MTT cell viability assay, Hela cell; format: cell-based; settings: human, HeLa cells, hydrogel up to 500 μM
Method: (§1) The bio-compatibility of the hydrogels prepared from the different peptide materials was measured by MTT cell viability assay.
(§2) MTT cell viability assay was performed by Sunrise absorbance microplate reader (DV990/BV4 GDV Programmable MPT reader). Various cells were seeded in a 24-well plate containing 0.5 mL medium (DMEM) with 10% fetal bovine serum (FBS) and 1% penicillin. In each well, the cell concentration was 50000 cells and cells were cultured for 24 hours. After seeding the cells, hydrogels with the different concentrations ([…]) were added. The medium in each well was replaced with the flesh medium containing 0.5 mL of MTT reagent (4 mg mL^−1) after 24 and 48 hours. After an additional 4 hours, the medium containing MTT reagent was removed and DMSO (0.5 mL/well) was added to dissolve formazan crystals. The cells in the 24-well plate were transferred to a 96-well plate. The optical densities of such obtained solutions were measured at 595 nm by Sunrise absorbance microplate reader (DV990/BV4 GDV Programmable MPT reader).
(§3) The untreated cells were used as a comparative example. The cell viability was calculated based on the following equation:
(§4) Cell viability(%)=ODsample/ODcomparative example

Hela cell [5] = test: MTT cell viability assay, Hela cell; format: cell-based; settings: Homo sapiens, read-out: IC50 inhibition concentration
Method: as §1, §2, §3, §4

MCF-7 cell = test: MTT cell viability assay, MCF-7 cell; format: cell-based; settings: Homo sapiens, MCF7, read-out: IC50 inhibition concentration
Method: as §1, §2, §3, §4

[6] = MTT cell viability assay, MCF-7 cell; format: cell-based; settings: human, MCF-7 cells, hydrogel up to 500 μM
Method: as §1, §2, §3, §4

CTX TNA2 cell [7] = test: MTT cell viability assay, CTX TNA2 cell; format: cell-based; settings: read-out: IC50 inhibition concentration
Method: as §1, §2, §3, §4

[8] = MTT cell viability assay, CTX TNA2 cell; format: cell-based; settings: rat, CTX TNA2 cells, hydrogel up to 500 μM
Method: as §1, §2, §3, §4

CTX TNA2 cell [9] = test: Wound healing assay, CTX TNA2 cell; format: cell-based; settings: medium with 1 wt % of hydrogel, versus Control
Method: Various cells were washed with PBS (phosphate buffer) twice and were suspended in a T-75 tissue culture flask. 0.25% trypsin containing 0.1% EDTA was added and then the cells were re-suspended in 5 mL of complete medium. 30000 cells (in 3 mL of medium) were placed in each vial on a 6-well plate to form a fusion monolayer. After the adhesion for 24 hours, the cell monolayer was scratched by a p200 pipet tip to create a wound. 2 mL of PBS was used twice to remove the floating cells, and was then replaced with 3 mL of complete medium. The image taken at 0 hour was used as a reference point. The medium was replaced with 3 mL of medium containing 1 wt % of hydrogel and the plate was incubated at 37° C. and 5% CO2 for 24 hours. The images at different hours were taken at an appropriate region. Control: no compound added.

[10] = State of hydrogels at 37° C. and 4° C. (TEM images); format: physicochemical
Method: The material, technique and general process in the present invention are suitable for the following examples. All used chemical reagents and solutions can be obtained from suppliers. ^1H and ^13C spectrums were measured by Bruker DRX-300. LC-MS was measured by MICROMASS Q-Tof. TEM was measured by Hitachi HT7700 Bio-transmission electron microscope.

SMILES	phase inversion temperature Tgel-sol [2]	storage modulus (G′) [3]	also measured
O=C(Cc1c(F)c(F)c(F)c(F)c1F)N[C@@H](Cc1ccccc1)C(=O)O [hydrogel (A), PFB-Phe]	56 °C	2×10^3 Pa	wound healing after 48 hours (Hela cell [1]): healed completely
O=C(O)CNC(=O)[C@H](Cc1ccccc1)NC(=O)Cc1c(F)c(F)c(F)c(F)c1F [hydrogel (B), PFB-Phe-Gly]	48 °C	10^4 Pa	wound healing after 48 hours (Hela cell [1]): healed completely
O=C(Cc1c(F)c(F)c(F)c(F)c1F)N[C@@H](Cc1ccc(O)cc1)C(=O)N[C@@H](Cc1ccccc1)C(=O)O [hydrogel (C), PFB-Tyr-Phe]	43 °C	5×10^3 Pa	viability [4]: ~100%; IC50 (Hela cell [5]): > 500 µM; IC50 (MCF-7 cell): > 500 µM; viability [6]: ~100%; wound healing after 48 hours (Hela cell [1]): healed completely; IC50 (CTX TNA2 cell [7]): > 500 µM; viability [8]: ~100%; healing effect (CTX TNA2 cell [9]): better than that of Control
O=C(Cc1c(F)c(F)c(F)c(F)c1F)N[C@@H](Cc1ccccc1)C(=O)N[C@@H](Cc1ccccc1)C(=O)O [hydrogel (D), PFB-Phe-Phe]	45 °C	2×10^4 Pa	
C[C@H](NC(=O)[C@H](Cc1ccccc1)NC(=O)Cc1c(F)c(F)c(F)c(F)c1F)C(=O)O [hydrogel (E), PFB-Phe-Ala]	48 °C	4×10^3 Pa	wound healing after 48 hours (Hela cell [1]): healed completely
CC(C)[C@H](NC(=O)Cc1c(F)c(F)c(F)c(F)c1F)C(=O)N[C@@H](Cc1ccccc1)C(=O)O [hydrogel (G), PFB-Val-Phe]	72 °C	6×10^4 Pa	
CC(C)C[C@H](NC(=O)Cc1c(F)c(F)c(F)c(F)c1F)C(=O)N[C@@H](Cc1ccccc1)C(=O)O [hydrogel (I), PFB-Leu-Phe]	55 °C	2×10^3 Pa	state of hydrogel at 4° C. [10]: liquid; state of hydrogel at 37° C. [10]: colloidal state
CC(C)C[C@@H](NC(=O)Cc1c(F)c(F)c(F)c(F)c1F)C(=O)N[C@H](Cc1ccccc1)C(=O)O [hydrogel (J), PFB-D-L-D-F]	69 °C	7×10^2 Pa	
O=C(Cc1ccc(F)cc1)N[C@@H](Cc1ccccc1)C(=O)N[C@@H](Cc1ccccc1)C(=O)O [hydrogel (K), 4-Fluorobenzyl-Phe-Phe]	46 °C	6×10^3 Pa	
O=C(Cc1c(F)c(F)c(F)c(F)c1F)NCC(=O)N[C@@H](Cc1ccccc1)C(=O)N[C@@H](Cc1ccccc1)C(=O)O [hydrogel (L), PFB-Gly-Phe-Phe]	38 °C	4×10^2 Pa	state of hydrogel at 4° C. [10]: liquid; state of hydrogel at 37° C. [10]: colloidal state

Continued, in another order:

phase inversion temperature Tgel-sol [2]	storage modulus (G′) [3]	SMILES	also measured
46 °C	3×10^3 Pa	CC(C)[C@H](NC(=O)[C@H](Cc1ccccc1)NC(=O)Cc1c(F)c(F)c(F)c(F)c1F)C(=O)O [hydrogel (F), PFB-Phe-Val]	wound healing after 48 hours (Hela cell [1]): healed completely
71 °C	1×10^4 Pa	CCC(C)[C@H](NC(=O)Cc1c(F)c(F)c(F)c(F)c1F)C(=O)N[C@@H](Cc1ccccc1)C(=O)O (stereo partly shown) [hydrogel (H), PFB-Ile-Phe]	
42 °C	1×10^3 Pa	CCC(C)[C@H](NC(=O)Cc1c(F)c(F)c(F)c(F)c1F)C(=O)N[C@@H](CCCCN)C(=O)N[C@H](C(=O)N[C@@H](C)C(=O)N[C@H](C(=O)O)C(C)C)C(C)C (stereo partly drawn) [hydrogel (M), PFB-Ile-Lys-Val-Ala-Val] ({Phenylacetyl(2,3,4,5,6-F5)}-[Ile(3ξ)]KVAV-OH)	
66 °C	1×10^4 Pa	CCC(C)[C@H](NC(=O)Cc1ccc(F)cc1)C(=O)N[C@@H](CCCCN)C(=O)N[C@H](C(=O)N[C@@H](C)C(=O)N[C@H](C(=O)O)C(C)C)C(C)C (stereo partly drawn) [hydrogel (N), 4-Fluorophenylacetic Acid-Ile-Lys-Val-Ala-Val] ({Phenylacetyl(4-F)}-[Ile(3ξ)]KVAV-OH)	
62 °C	6×10^3 Pa	CCC(C)[C@H](NC(=O)c1ccccc1)C(=O)N[C@@H](CCCCN)C(=O)N[C@H](C(=O)N[C@@H](C)C(=O)N[C@H](C(=O)O)C(C)C)C(C)C (stereo partly drawn) [hydrogel (O), Benzoic Acid-Ile-Lys-Val-Ala-Val] (Bz-[Ile(3ξ)]KVAV-OH)	
65 °C	6×10^3 Pa	CCC(C)[C@H](NC(=O)Cc1ccccc1)C(=O)N[C@@H](CCCCN)C(=O)N[C@H](C(=O)N[C@@H](C)C(=O)N[C@H](C(=O)O)C(C)C)C(C)C (stereo partly drawn) [hydrogel (P), Phenylacetic Acid-Ile-Lys-Val-Ala-Val] (PhAc-[Ile(3ξ)]KVAV-OH)	
> 90 °C	1×10^4 Pa	CCC(C)[C@H](NC(=O)CCc1ccccc1)C(=O)N[C@@H](CCCCN)C(=O)N[C@H](C(=O)N[C@@H](C)C(=O)N[C@H](C(=O)O)C(C)C)C(C)C (stereo partly drawn) [hydrogel (Q), 3-Phenylpropionic Acid-Ile-Lys-Val-Ala-Val] (Hydrocinnamoyl-[Ile(3ξ)]KVAV-OH)	
40 °C	1.0×10^3 Pa	CCC(C)[C@H](NC(=O)[C@H](Cc1ccccc1)NC(=O)Cc1c(F)c(F)c(F)c(F)c1F)C(=O)N[C@@H](CCCCN)C(=O)N[C@H](C(=O)N[C@@H](C)C(=O)N[C@H](C(=O)O)C(C)C)C(C)C (stereo partly drawn) [hydrogel (R), PFB-Phe-Ile-Lys-Val-Ala-Val] ({Phenylacetyl(2,3,4,5,6-F5)}-F[Ile(3ξ)]KVAV-OH)	
